One may read the Ki as the dissociation constant of the complex between target and ligand, obtained from inhibition or displacement. As usually defined, the GI50 is the concentration giving 50% growth inhibition.

One assay deals with CDK4/CyclinD1 (Homo sapiens, UniProt P11802). Kind of assay: ADP Glo kinase assay, CDK4/CyclinD1. The class given is biochemical. Conditions: for remaining activity at 1 µM: compound at 1 μM, read-out: Residual enzymatic activity (%) at 1 μM, CDK4 D1; for Ki: Km ATP, read-out: Enzymatic inhibition, Ki, CDK4 D1. In short, it runs like this:
(§1)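 ADP Glo reagent terminates each kinase reaction after an optimised incubation at room temperature. Compounds are tested at ten concentrations spanning 10 to 0.0005 μM, diluted 1:3, with 0.5% DMSO.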

The next assay deals with CDK2/CyclinA2 (Homo sapiens, UniProt P24941). Kind of assay: ADP Glo kinase assay, CDK2/CyclinA2. In kind it is biochemical. Conditions: for Ki: Km ATP, read-out: Enzymatic inhibition, Ki, CDK2 A; for remaining activity at 1 µM: compound at 1 μM, read-out: Residual enzymatic activity (%) at 1 μM, CDK2 A. In short, it runs like this: as §1
In general terms: In ADP-Glo the light output rises with the ADP produced.

The next assay concerns the target T1, FLT3-ITD (Homo sapiens, UniProt P36888).
T1 sequence (P36888 1-993): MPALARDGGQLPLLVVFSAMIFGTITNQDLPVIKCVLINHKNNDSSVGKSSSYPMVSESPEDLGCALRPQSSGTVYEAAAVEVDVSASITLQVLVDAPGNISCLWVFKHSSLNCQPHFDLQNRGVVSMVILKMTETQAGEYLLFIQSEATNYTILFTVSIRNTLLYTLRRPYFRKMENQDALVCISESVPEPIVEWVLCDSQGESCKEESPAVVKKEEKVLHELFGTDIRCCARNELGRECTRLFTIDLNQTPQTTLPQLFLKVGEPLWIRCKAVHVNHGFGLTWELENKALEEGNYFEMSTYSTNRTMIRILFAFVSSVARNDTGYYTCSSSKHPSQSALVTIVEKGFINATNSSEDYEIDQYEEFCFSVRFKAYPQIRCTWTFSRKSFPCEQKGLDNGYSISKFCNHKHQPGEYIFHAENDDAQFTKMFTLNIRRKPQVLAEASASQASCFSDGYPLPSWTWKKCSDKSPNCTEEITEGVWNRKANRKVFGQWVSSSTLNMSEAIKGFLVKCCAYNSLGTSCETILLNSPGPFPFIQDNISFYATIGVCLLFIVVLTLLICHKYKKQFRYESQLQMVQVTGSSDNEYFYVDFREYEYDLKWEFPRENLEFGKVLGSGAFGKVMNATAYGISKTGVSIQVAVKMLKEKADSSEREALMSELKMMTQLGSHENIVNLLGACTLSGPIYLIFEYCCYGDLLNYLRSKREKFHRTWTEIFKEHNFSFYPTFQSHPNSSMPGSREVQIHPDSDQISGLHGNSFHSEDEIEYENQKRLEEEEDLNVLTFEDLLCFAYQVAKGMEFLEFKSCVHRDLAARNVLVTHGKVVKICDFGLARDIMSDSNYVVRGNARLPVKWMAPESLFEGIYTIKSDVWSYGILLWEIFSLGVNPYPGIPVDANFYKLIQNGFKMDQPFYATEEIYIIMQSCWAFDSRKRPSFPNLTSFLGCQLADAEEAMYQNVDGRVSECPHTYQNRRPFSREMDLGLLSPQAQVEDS
Kind of assay: ADP Glo kinase assay, FLT3-ITD. The class given is biochemical. Conditions: Km ATP 100 μM, read-out: Enzymatic inhibition, Ki, FLT3-ITD. Put shortly:
as §1

The next assay has as its target CDK9/CyclinT1 (Homo sapiens, UniProt P50750). Kind of assay: ADP Glo kinase assay, CDK9/CyclinT1. The settings on record: CDK9/CyclinT1; Km ATP; read-out: Enzymatic inhibition, Ki, CDK9 T1. In kind it is biochemical. In short, it runs like this:
as §1

The next assay concerns the target CDK7/CyclinH/Mat1 (Homo sapiens, UniProt P50613). The experiment in a line: ADP Glo kinase assay, CDK7/CyclinH/Mat1. In kind it is biochemical. The settings on record: for remaining activity at 1 µM: compound at 1 μM, read-out: Residual enzymatic activity (%) at 1 μM, CDK7 H; for Ki: Km ATP, read-out: Enzymatic inhibition, Ki, CDK7 H. In short, it runs like this:
as §1

For a further assay, the target named is CDK6/CyclinD3 (Homo sapiens, UniProt Q00534). Kind of assay: ADP Glo kinase assay, CDK6/CyclinD3. In kind it is biochemical. Conditions: for remaining activity at 1 µM: compound at 1 μM, read-out: Residual enzymatic activity (%) at 1 μM, CDK6 D3; for Ki: Km ATP, read-out: Enzymatic inhibition, Ki, CDK6 D3. In short, it runs like this: as §1
The target of the next assay is CDK1/CyclinB (Homo sapiens, UniProt P06493). The experiment in a line: ADP Glo kinase assay, CDK1/CyclinB. In kind it is biochemical. Conditions: for remaining activity at 1 µM: compound at 1 μM, read-out: Residual enzymatic activity (%) at 1 μM, CDK1 B; for Ki: Km ATP, read-out: Enzymatic inhibition, Ki, CDK1 B. In short, it runs like this:
as §1

In the next assay the test system is MV-4-11. Kind of assay: Proliferation assay (resazurin, leukemia cell lines), MV-4-11. In kind it is cell-based. Conditions: Homo sapiens, MV4-11, read-out: 72 h Growth inhibition GI50, MV-4-11 cells. The text has this: The following compounds were used as comparators.
(Resazurin is reduced to fluorescent resorufin, in cell work by metabolically active cells.)

Chain of CDK4/CyclinD1 (P11802 whole entry, species assumed): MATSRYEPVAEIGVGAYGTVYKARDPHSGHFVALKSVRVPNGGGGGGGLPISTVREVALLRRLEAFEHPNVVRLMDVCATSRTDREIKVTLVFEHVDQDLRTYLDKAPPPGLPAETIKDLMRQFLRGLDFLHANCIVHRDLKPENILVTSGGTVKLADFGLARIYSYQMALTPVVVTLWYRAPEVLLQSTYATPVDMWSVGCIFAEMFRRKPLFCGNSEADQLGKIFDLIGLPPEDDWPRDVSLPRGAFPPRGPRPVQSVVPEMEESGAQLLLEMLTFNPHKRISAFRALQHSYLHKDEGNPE
Chain of CDK4/CyclinD1 (P24385 whole entry partner, species assumed): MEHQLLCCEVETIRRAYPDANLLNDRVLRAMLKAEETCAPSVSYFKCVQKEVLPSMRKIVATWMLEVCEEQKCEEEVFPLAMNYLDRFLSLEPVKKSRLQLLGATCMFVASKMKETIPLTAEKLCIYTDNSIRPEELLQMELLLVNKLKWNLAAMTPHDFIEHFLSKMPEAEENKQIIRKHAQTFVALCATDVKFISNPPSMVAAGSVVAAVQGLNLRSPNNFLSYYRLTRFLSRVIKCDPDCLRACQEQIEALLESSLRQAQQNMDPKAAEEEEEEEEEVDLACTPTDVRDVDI
Chain of CDK1/CyclinB (P06493 whole entry, species assumed): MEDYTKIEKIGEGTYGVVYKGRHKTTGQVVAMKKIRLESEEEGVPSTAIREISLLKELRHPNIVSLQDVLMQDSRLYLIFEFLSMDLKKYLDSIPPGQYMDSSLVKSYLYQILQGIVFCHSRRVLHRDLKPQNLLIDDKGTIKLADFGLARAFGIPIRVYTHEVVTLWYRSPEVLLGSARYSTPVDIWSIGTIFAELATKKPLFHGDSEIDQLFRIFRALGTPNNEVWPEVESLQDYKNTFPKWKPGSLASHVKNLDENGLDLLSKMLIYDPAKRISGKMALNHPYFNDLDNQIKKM
Chain of CDK1/CyclinB (P14635 whole entry partner, species assumed): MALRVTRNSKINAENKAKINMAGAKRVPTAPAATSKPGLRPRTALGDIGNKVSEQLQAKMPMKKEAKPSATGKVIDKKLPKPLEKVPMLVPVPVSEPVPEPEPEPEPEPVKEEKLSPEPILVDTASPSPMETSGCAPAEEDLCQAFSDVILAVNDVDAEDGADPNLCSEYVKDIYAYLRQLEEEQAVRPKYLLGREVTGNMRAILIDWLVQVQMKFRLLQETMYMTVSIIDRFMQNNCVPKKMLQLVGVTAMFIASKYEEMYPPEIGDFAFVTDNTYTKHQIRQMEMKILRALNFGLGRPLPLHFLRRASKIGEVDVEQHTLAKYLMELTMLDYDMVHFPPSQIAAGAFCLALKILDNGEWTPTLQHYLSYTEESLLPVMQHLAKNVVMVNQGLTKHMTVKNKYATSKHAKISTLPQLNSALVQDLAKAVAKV
Chain of CDK9/CyclinT1 (P50750 whole entry, species assumed): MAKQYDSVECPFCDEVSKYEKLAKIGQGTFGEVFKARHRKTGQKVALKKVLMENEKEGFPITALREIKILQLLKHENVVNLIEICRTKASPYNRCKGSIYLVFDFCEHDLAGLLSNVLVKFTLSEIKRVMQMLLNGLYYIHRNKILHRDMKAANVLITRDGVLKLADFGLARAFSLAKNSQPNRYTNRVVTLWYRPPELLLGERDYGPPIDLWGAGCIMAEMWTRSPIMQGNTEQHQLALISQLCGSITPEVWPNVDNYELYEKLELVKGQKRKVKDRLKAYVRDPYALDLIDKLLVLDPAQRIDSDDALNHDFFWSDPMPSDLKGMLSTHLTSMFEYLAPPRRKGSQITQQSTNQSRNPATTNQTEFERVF
Chain of CDK9/CyclinT1 (O60563 whole entry partner, species assumed): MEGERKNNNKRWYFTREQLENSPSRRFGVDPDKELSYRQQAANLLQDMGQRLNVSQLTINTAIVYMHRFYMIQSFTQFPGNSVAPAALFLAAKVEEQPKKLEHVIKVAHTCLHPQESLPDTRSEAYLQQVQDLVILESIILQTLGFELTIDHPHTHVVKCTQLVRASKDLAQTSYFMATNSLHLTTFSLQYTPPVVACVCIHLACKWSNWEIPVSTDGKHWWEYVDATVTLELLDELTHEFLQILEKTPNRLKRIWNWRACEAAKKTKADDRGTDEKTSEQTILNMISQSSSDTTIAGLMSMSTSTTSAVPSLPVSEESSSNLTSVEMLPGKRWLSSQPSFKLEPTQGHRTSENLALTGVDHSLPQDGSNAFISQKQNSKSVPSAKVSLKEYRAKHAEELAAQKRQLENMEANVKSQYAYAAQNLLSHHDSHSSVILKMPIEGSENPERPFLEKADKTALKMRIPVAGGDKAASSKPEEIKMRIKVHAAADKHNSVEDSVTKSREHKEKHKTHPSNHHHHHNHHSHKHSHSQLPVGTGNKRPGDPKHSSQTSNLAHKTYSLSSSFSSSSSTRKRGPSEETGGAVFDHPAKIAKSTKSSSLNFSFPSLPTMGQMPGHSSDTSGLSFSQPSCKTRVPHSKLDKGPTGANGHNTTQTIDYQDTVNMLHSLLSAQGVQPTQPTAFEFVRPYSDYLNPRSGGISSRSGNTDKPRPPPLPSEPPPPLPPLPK
Chain of CDK6/CyclinD3 (Q00534 whole entry, species assumed): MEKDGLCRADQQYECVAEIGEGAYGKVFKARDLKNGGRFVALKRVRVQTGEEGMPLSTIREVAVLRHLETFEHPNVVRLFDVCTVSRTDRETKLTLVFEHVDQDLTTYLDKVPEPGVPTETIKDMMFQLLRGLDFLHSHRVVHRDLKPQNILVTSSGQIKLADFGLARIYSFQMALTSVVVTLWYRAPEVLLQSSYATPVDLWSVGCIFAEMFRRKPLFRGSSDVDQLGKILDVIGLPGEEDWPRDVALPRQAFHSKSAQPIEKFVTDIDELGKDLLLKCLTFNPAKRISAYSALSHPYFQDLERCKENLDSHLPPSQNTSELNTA
Chain of CDK6/CyclinD3 (P30281 whole entry partner, species assumed): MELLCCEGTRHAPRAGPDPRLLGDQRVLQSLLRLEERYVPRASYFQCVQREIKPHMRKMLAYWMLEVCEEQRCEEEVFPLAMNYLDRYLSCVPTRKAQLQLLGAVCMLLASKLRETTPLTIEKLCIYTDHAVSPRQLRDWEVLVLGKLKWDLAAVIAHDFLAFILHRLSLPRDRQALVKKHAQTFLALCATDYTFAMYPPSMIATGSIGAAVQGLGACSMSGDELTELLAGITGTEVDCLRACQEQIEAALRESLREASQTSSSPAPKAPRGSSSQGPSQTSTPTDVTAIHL
Chain of CDK7/CyclinH/Mat1 (P50613 whole entry, species assumed): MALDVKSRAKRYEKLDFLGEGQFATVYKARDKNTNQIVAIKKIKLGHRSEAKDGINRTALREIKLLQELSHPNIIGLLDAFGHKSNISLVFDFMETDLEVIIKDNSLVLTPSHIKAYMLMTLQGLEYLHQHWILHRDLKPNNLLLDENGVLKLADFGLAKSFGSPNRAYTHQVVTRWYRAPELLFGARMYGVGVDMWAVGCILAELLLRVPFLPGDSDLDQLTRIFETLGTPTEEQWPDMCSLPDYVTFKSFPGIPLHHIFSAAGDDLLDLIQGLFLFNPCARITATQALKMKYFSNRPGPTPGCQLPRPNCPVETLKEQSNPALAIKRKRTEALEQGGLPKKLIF
Chain of CDK7/CyclinH/Mat1 (P51946 whole entry partner, species assumed): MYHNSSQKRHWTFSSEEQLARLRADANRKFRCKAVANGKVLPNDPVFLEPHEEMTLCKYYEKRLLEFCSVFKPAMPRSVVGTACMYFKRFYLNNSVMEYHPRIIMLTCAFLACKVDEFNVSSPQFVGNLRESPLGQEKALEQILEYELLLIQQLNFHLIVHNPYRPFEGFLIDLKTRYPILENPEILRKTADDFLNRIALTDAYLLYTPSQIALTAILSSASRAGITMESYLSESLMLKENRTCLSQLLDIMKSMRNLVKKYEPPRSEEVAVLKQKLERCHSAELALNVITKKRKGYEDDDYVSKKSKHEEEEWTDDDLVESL
Chain of CDK7/CyclinH/Mat1 (P51948 whole entry partner, species assumed): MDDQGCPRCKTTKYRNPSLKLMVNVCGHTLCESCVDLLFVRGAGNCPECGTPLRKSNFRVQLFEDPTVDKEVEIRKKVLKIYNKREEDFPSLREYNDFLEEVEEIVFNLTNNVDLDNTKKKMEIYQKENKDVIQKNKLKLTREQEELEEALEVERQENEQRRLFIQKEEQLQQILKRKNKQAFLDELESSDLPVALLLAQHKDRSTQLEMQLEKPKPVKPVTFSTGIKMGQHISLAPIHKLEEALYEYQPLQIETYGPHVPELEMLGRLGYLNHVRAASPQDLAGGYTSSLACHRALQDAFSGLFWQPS

For `CC(C)N1CCN(c2ccc(Nc3nccc(-c4cnc5ccc(-c6ccncc6)cn45)n3)cn2)CC1` [Compound 40, N-(6-(4-Isopropylpiperazin-1-yl)pyridin-3-yl)-4-(6-(pyridin-4-yl)imidazo[1,2-a]pyridin-3-yl)pyrimidin-2-amine], the remaining activity at 1 µM stood at 57% at CDK4/CyclinD1, 32% on CDK7/CyclinH/Mat1, 52% at CDK6/CyclinD3 and 41% on CDK1/CyclinB. Moreover, the results for the Ki on CDK2/CyclinA2, at FLT3-ITD and on CDK9/CyclinT1 were 0.344 µM, 0.011 µM and 0.012 µM, respectively. Besides, the GI50 in the assay with MV-4-11 amounted to 0.047 µM.

For `O=C(NC1CC1)c1ccc(Nc2ncc(F)c(-c3cnc4ccc(-c5ccccc5)cn34)n2)cn1` [Compound 33, N-Cyclopropyl-5-((5-fluoro-4-(6-phenylimidazo[1,2-a]pyridin-3-yl)pyrimidin-2-yl)amino) picolinamide], the remaining activity at 1 µM at CDK4/CyclinD1 came out at 96%; on CDK2/CyclinA2 it was 83%; on CDK7/CyclinH/Mat1 it was 100%; on CDK6/CyclinD3 it was 46%; at CDK1/CyclinB, 59%. In addition, the Ki was > 1 µM at FLT3-ITD and > 0.5 µM on CDK9/CyclinT1. In the assay on MV-4-11, the GI50 worked out at 0.296 µM.

In the case of `Fc1cnc(Nc2ccc(Cl)nc2)nc1-c1cnc2ccc(-c3ccccc3)cn12` [Compound 34, N-(6-Chloropyridin-3-yl)-5-fluoro-4-(6-phenylimidazo[1,2-a]pyridin-3-yl)pyrimidin-2-amine], the remaining activity at 1 µM turned out to be 92% at CDK4/CyclinD1; 86% at CDK2/CyclinA2; 92% on CDK7/CyclinH/Mat1; 47% on CDK6/CyclinD3; 100% at CDK1/CyclinB. Moreover, the Ki was > 1 µM at FLT3-ITD and 0.33 µM at CDK9/CyclinT1. Besides, the GI50 with MV-4-11 came out at 0.92 µM.

Regarding `CC(C)N1CCN(c2ccc(Nc3nccc(-c4cnc5ccc(Cl)cn45)n3)cn2)CC1` [Compound 37, 4-(6-Chloroimidazo[1,2-a]pyridin-3-yl)-N-(6-(4-isopropylpiperazin-1-yl)pyridin-3-yl)pyrimidin-2-amine], the Ki at CDK4/CyclinD1 was 0.154 µM; on CDK2/CyclinA2, 0.072 µM; on FLT3-ITD, 0.026 µM; on CDK9/CyclinT1, 0.014 µM; at CDK7/CyclinH/Mat1 it was 0.174 µM; on CDK6/CyclinD3, 0.215 µM. Further, the inhibitory constant (Ki) on CDK1/CyclinB came to 0.151 µM. The 50% growth inhibitory concentration (GI50) in the assay on MV-4-11 was found to be 0.024 µM.

Turning to `c1ccc(-c2ccc3ncc(-c4ccnc(Nc5ccc(NC6CCOCC6)nc5)n4)n3c2)cc1` [Compound 58, N^5-(4-(6-Phenylimidazo[1,2-a]pyridin-3-yl)pyrimidin-2-yl)-N^2-(tetrahydro-2H-pyran-4-yl)pyridine-2,5-diamine], the remaining activity at 1 µM at CDK4/CyclinD1 came to 33%; on CDK2/CyclinA2, 73%; at CDK7/CyclinH/Mat1, 73%; on CDK6/CyclinD3, 45%; on CDK1/CyclinB, 77%. The figures for the Ki at FLT3-ITD and on CDK9/CyclinT1 were 0.14 µM and 0.401 µM, respectively. Moreover, the GI50 in the assay with MV-4-11 stood at 0.028 µM.

As to `CN1CCN(c2ccc(Nc3nccc(-c4cnc5ccc(Cl)cn45)n3)cn2)CC1` [Compound 22, 4-(6-Chloroimidazo[1,2-a]pyridin-3-yl)-N-(6-(4-methylpiperazin-1-yl)pyridin-3-yl) pyrimidin-2-amine], the inhibitory constant (Ki) at CDK4/CyclinD1 was found to be 0.094 µM; at CDK2/CyclinA2, 0.038 µM; on FLT3-ITD, 0.005 µM; at CDK9/CyclinT1 it was 0.01 µM; at CDK7/CyclinH/Mat1 it was 0.77 µM; at CDK6/CyclinD3, 0.243 µM. The Ki on CDK1/CyclinB came out at 0.199 µM. Besides, in the assay on MV-4-11, the GI50 was 0.006 µM.

As to `CS(=O)(=O)N1CCN(c2ccc(Nc3nccc(-c4cnc5ccc(-c6cccnc6)cn45)n3)cn2)CC1` [Compound 19, N-(6-(4-(Methylsulfonyl)piperazin-1-yl)pyridin-3-yl)-4-(6-(pyridin-3-yl)imidazo[1,2-a]pyridin-3-yl)pyrimidin-2-amine], the remaining activity at 1 µM on CDK4/CyclinD1 is 83%; at CDK2/CyclinA2, 33%. Besides, the Ki at FLT3-ITD is 0.004 µM; at CDK9/CyclinT1, 0.016 µM; at CDK7/CyclinH/Mat1 it was 1.69 µM; at CDK6/CyclinD3, > 5 µM; on CDK1/CyclinB, 0.776 µM. The GI50 with MV-4-11 was 0.017 µM.

On to `CC(=O)N1CCN(c2ccc(Nc3nccc(-c4cnc5ccc(-c6cccc7[nH]ccc67)cn45)n3)cn2)CC1` [Compound 49, 1-(4-(5-((4-(6-(1H-Indol-4-yl)imidazo[1,2-a]pyridin-3-yl)pyrimidin-2-yl)amino)pyridin-2-yl)piperazin-1-yl)ethan-1-one], for which the remaining activity at 1 µM on CDK4/CyclinD1 came out at 92%; on CDK2/CyclinA2 it was 51%; at CDK7/CyclinH/Mat1, 81%; on CDK6/CyclinD3 it was 38%; on CDK1/CyclinB it was 94%. For the same compound, the results for the Ki on FLT3-ITD and at CDK9/CyclinT1 were > 0.5 µM and 0.171 µM, respectively. Also, the concentration for 50% growth inhibition (GI50) in the assay with MV-4-11 is 0.017 µM.

On to `Cc1cnc(Nc2ccc(N3CCN(C)CC3)nc2)nc1-c1cnc2ccc(-c3ccccc3)cn12` [Compound 50, 5-Methyl-N-(6-(4-methylpiperazin-1-yl)pyridin-3-yl)-4-(6-phenylimidazo[1,2-a]pyridin-3-yl)pyrimidin-2-amine], for which the remaining activity at 1 µM was 94% on CDK4/CyclinD1; 90% at CDK2/CyclinA2; 51% on CDK7/CyclinH/Mat1; 79% at CDK6/CyclinD3; 91% on CDK1/CyclinB. The Ki at FLT3-ITD turned out to be 0.21 µM; on CDK9/CyclinT1, 0.41 µM. Moreover, the GI50 in the assay with MV-4-11 was 0.813 µM.

`c1ccc(-c2ccc3ncc(-c4ccnc(Nc5ccc(N6CCCC6)nc5)n4)n3c2)cc1` [Compound 27, 4-(6-Phenylimidazo[1,2-a]pyridin-3-yl)-N-(6-(pyrrolidin-1-yl)pyridin-3-yl)pyrimidin-2-amine]: the remaining activity at 1 µM turned out to be 97% at CDK4/CyclinD1, 37% at CDK2/CyclinA2, 61% at CDK6/CyclinD3 and 84% at CDK1/CyclinB. Moreover, the inhibition constant Ki is 0.109 µM on FLT3-ITD, > 5 µM on CDK9/CyclinT1 and > 5 µM at CDK7/CyclinH/Mat1. Besides, the GI50 with MV-4-11 amounted to 0.196 µM.

In the case of `CC(=O)N1CCN(c2ccc(Nc3ncc(F)c(-c4cnc5ccccn45)n3)cn2)CC1` [Compound 10, 1-(4-(5-((5-Fluoro-4-(imidazo[1,2-a]pyridin-3-yl)pyrimidin-2-yl)amino)pyridin-2-yl)piperazin-1-yl)ethan-1-one], the Ki on CDK4/CyclinD1 is > 0.5 µM; at CDK2/CyclinA2, 0.002 µM; on FLT3-ITD, 0.018 µM; at CDK9/CyclinT1 it was 0.05 µM; on CDK7/CyclinH/Mat1 it was 0.895 µM; on CDK6/CyclinD3, 0.451 µM. Moreover, the Ki on CDK1/CyclinB stood at 0.061 µM. The GI50 in the assay with MV-4-11 was found to be 0.006 µM.

For the compound `Fc1cnc(Nc2cccnc2)nc1-c1cnc2ccccn12` [Compound 4, 5-Fluoro-4-(imidazo[1,2-a]pyridin-3-yl)-N-(pyridin-3-yl)pyrimidin-2-amine], the Ki at CDK4/CyclinD1 is 0.074 µM; at CDK2/CyclinA2, 0.001 µM; on FLT3-ITD, 0.224 µM; at CDK9/CyclinT1 it was 0.041 µM; on CDK7/CyclinH/Mat1, 2.54 µM; at CDK6/CyclinD3 it was 2.9 µM. Further, the inhibitory constant (Ki) at CDK1/CyclinB was found to be 0.002 µM. Also, the GI50 in the assay on MV-4-11 stood at 0.057 µM.

The values are drawn from patent publication US20240158391A1, “DERIVATIVES OF 4-(IMIDAZO[1,2-A]PYRIDIN-3-YL)-N-(PYRIDIN-3-YL) PYRIMIDIN-2- AMINE FOR TREATING PROLIFERATIVE DISEASES AND CONDITIONS” (AUCENTRA THERAPEUTICS PTY LTD, priority 2019, published 2024).
